Laboratory results reported in article PMC6687188, “Novel lactate dehydrogenase inhibitors with in vivo efficacy against Cryptosporidium parvum” (PLoS Pathogens, 2019).
Like-named read-outs stand apart in the source and are kept apart here.

Legend:
HCT-8 cells [1] = assay: Compound cytotoxicity assay (WST-1 cell proliferation reagent); settings: read-out: CYTOTOXICITY IC50; HCT-8 cells, 24 h
Procedure: A colorimetric assay using the cell proliferation reagent WST-1 (Roche, USA) for the quantification of cell viability was performed. […] When the cells were confluent, the old medium was replaced with fresh medium with or without varying concentrations of chemical compound. After 24 h of culture, 10 μl of the cell proliferation reagent WST-1, (for quantification of cell viability) was added to each well, mixed and the plates incubated for 1 h at 37 C with 5% CO2 in the dark. […] Three independent assays were performed and the dose–response curves of the means of triplicate assays were generated using GraphPad PRISM software to derive the half maximal inhibitory concentration (IC50) of compounds in HCT-8 cells.

Cryptosporidium parvum [2] = assay: In vitro anti-Cryptosporidium assay in HCT-8 cells (immunofluorescence); format: cell-based
Procedure: HCT-8 cells were cultured in supplemented RPMI-1640 medium in 96-well plates. When the cells were confluent, old medium was replaced with fresh medium. To one set of wells, varying concentrations of recombinant CpLDH inhibitors (reconstituted in DMSO and diluted in RPMI medium) were added, while another set was left without inhibitors. Paromomycin was used as a positive control drug reconstituted in distilled sterile water. Then, 4 x 10^4 freshly excysted sporozoites were added to each well and incubated at 37°C with 5% CO2. After 2 h incubation, varying concentrations of CpLDH inhibitors were added to the set of infected cells that were not treated initially. Control infected cells without inhibitors, but with added DMSO volumes equivalent to those used in the wells with inhibitors, were included. The cells were maintained in culture for a total of either 48 h or 72 h and processed for immunofluorescence assay as previously described. Briefly, medium was decanted and the cells fixed with methanol-acetic acid (9:1) for 2 minute at room temperature. The cells were rehydrated and permeabilized by two successive washes with buffer (0.1% Triton X-100, 0.35 M NaCl, 0.13 M Tris-base, pH 7.6) and blocked with 5% normal goat serum, followed by staining with antibody to C. parvum (SporoGlo; Waterborn, Inc.) overnight at 4°C. The stained cells were washed twice with PBS, followed by water, and then imaged with an inverted fluorescence microscope. Fluorescence quantification was done using ImageJ version 1.37v software (NIH).

Cryptosporidium parvum [3] = assay: Histopathology of distal small intestine of infected mice (denuded villi); format: in vivo; settings: 9 days post-infection
Procedure: Gamma interferon knockout mice (B6.129S7-Ifng), 8 weeks of age, were purchased from Charles River, USA. The care and use of the mice was done following the guidelines of protocol number 17024 approved by the University of Illinois at Urbana-Champaign, USA. The animals were allowed to acclimatize for 1 week before experiments commenced. Stock solutions of recombinant CpLDH inhibitors reconstituted in DMSO were diluted in sterile distilled water to reduce the final amount of DMSO in the solution to less than 1% (v/v) before administering them to mice. Prior to testing the anti-Cryptosporidium effect of the inhibitors in mice, the tolerability of each inhibitor was tested by oral gavage using varying dosages (100–2000 mg/kg body weight) of each inhibitor in groups of mice (three mice for each dose) daily for 7 days. Mice were observed daily for signs of toxicity including changes from normal physical activity, respiration, body temperature, feeding, posture, fur condition or occurrence of death. […] Mice were allocated to groups as follows: “Infected plus inhibitor treatment”; “Infected minus inhibitor treatment”; “Uninfected minus inhibitor treatment” and “Infected plus paromomycin treatment”. Each group contained at least three mice. Each mouse in the infection groups received 5,000 C. parvum oocysts (resuspended in 50 μl of PBS) by oral gavage. Mice were housed individually in cages lined with sterile gauze as bedding. One day post-infection (PI), daily oral gavage administration of recombinant CpLDH inhibitor or paromomycin commenced and continued for a total of 7 days. Untreated mice received an equivalent volume of sterile distilled water (containing DMSO equivalent to the amount administered in the inhibitor-treated group) by oral gavage. […] An equivalent volume of PBS containing a cocktail of penicillin (100 units/ml), streptomycin (100 μg/ml), chloramphenicol (34 μg/ml) and amphotericin (0.25 μg/ml) was added to the fecal samples and stored at 4°C until use for quantification of C. parvum genomic DNA load. […]

[4] = molecular target: recombinant CpLDH protein (Cryptosporidium parvum, UniProt Q9GT92, F198L/K295E/R251K)
Cryptosporidium parvum [5] = assay: In vivo anti-Cryptosporidium efficacy: real-time PCR of C. parvum DNA in feces of infected Gamma interferon knockout mice
Procedure: Gamma interferon knockout mice (B6.129S7-Ifng), 8 weeks of age, were purchased from Charles River, USA. The care and use of the mice was done following the guidelines of protocol number 17024 approved by the University of Illinois at Urbana-Champaign, USA. The animals were allowed to acclimatize for 1 week before experiments commenced. Stock solutions of recombinant CpLDH inhibitors reconstituted in DMSO were diluted in sterile distilled water to reduce the final amount of DMSO in the solution to less than 1% (v/v) before administering them to mice. […] An equivalent volume of PBS containing a cocktail of penicillin (100 units/ml), streptomycin (100 μg/ml), chloramphenicol (34 μg/ml) and amphotericin (0.25 μg/ml) was added to the fecal samples and stored at 4°C until use for quantification of C. parvum genomic DNA load. […]
Genomic DNA was extracted from individual fecal samples collected from mice at different days as described above. […] Quantification of the amount of C. parvum 18s rRNA gene (GenBank accession number AF164102) was performed essentially as described previously. […] The PCR product was fractionated on agarose gel, extracted using the QIAquick Gel extraction kit (Qiagen, USA), and the concentration measured by Nanodrop Spectrophotometer (Fisher, USA). Ten-fold serial dilutions of the extracted DNA fragment were made and used as quantification standards for real-time PCR. […]

[6] = Tolerability in mice, daily oral gavage for 7 days; format: in vivo; settings: daily oral gavage over 7 days, no toxicity signs
Procedure: Gamma interferon knockout mice (B6.129S7-Ifng), 8 weeks of age, were purchased from Charles River, USA. The care and use of the mice was done following the guidelines of protocol number 17024 approved by the University of Illinois at Urbana-Champaign, USA. The animals were allowed to acclimatize for 1 week before experiments commenced. Stock solutions of recombinant CpLDH inhibitors reconstituted in DMSO were diluted in sterile distilled water to reduce the final amount of DMSO in the solution to less than 1% (v/v) before administering them to mice. Prior to testing the anti-Cryptosporidium effect of the inhibitors in mice, the tolerability of each inhibitor was tested by oral gavage using varying dosages (100–2000 mg/kg body weight) of each inhibitor in groups of mice (three mice for each dose) daily for 7 days. Mice were observed daily for signs of toxicity including changes from normal physical activity, respiration, body temperature, feeding, posture, fur condition or occurrence of death. […] An equivalent volume of PBS containing a cocktail of penicillin (100 units/ml), streptomycin (100 μg/ml), chloramphenicol (34 μg/ml) and amphotericin (0.25 μg/ml) was added to the fecal samples and stored at 4°C until use for quantification of C. parvum genomic DNA load. […]

Cryptosporidium parvum [7] = test system: Cryptosporidium parvum; parameters: method as in PMID 18591280; settings: read-out: IC50 for inhibition of C. parvum growth in HCT-8 cells; cited from earlier work
HCT-8 cells [8] = test system: HCT-8 cells; parameters: method as in PMID 10882689, PMID 18591280; settings: concentrations above 1000 μM; cited from earlier work

## O=C1c2ccccc2C(=O)c2c(O)c(O)cc(O)c21 [NSC10447]
HCT-8 cells [1]
  IC50: 290 µM
Cryptosporidium parvum [2]; 48 h post-infection, concentration at least 50% lower than cytotoxicity IC50
  C. parvum proliferation in vitro, initial screen (in words): significantly (P < 0.05) inhibit C. parvum proliferation
Cryptosporidium parvum [2]; compound added at the time of infection, HCT-8 cells, read-out: IC50, inhibition of C. parvum growth at 72 h p.i.
  IC50: 83.6 µM
Cryptosporidium parvum [2]; read-out: IC50, inhibition of C. parvum growth at 48 h p.i. (2 h), compound added 2 h post-infection, HCT-8 cells
  IC50: 79.5 µM
Cryptosporidium parvum [2]; read-out: IC50, inhibition of C. parvum growth at 48 h p.i., compound added at the time of infection, HCT-8 cells
  IC50: 72.7 µM
Cryptosporidium parvum [2]; read-out: IC50, inhibition of C. parvum growth at 72 h p.i. (2 h), compound added 2 h post-infection, HCT-8 cells
  IC50: 95.2 µM
Cryptosporidium parvum [3]
  reduction of percentage of denuded intestinal villi compared to infected untreated mice: ≥ 7 fold
Cryptosporidium parvum [3]; distal small intestine
  intestinal histopathology (in words): prevented villous atrophy and maintained the integrity of the intestinal mucosa
[4]
  MEAN CpLDH INHIBITION (%): 39.07%
[4]; read-out: IC50, inhibition of recombinant CpLDH activity
  IC50: 46.3 µM
Cryptosporidium parvum [5]; 250, 500 and 1000 mg/kg, day 3 until day 8
  lower C. parvum DNA load in feces compared to infected untreated: at least 50%
[6]
  highest tolerable dose in mice: 1000 mg/kg

## NC[C@@H]1O[C@H](O[C@H]2[C@@H](O)[C@H](O[C@@H]3[C@@H](O)[C@H](N)C[C@H](N)[C@H]3O[C@H]3O[C@H](CO)[C@@H](O)[C@H](O)[C@H]3N)O[C@@H]2CO)[C@H](N)[C@@H](O)[C@@H]1O [paromomycin, reference compound]
Cryptosporidium parvum [7]
  IC50: 711 µM
HCT-8 cells [8]
  cytotoxicity in HCT-8 cells: negligible
Cryptosporidium parvum [2]; Cryptosporidium parvum, HCT-8, 48 h post-infection, positive control, time of addition not specified, read-out: IC50, inhibition of C. parvum growth
  IC50: 450 µM
Cryptosporidium parvum [2]; Cryptosporidium parvum, HCT-8, 72 h post-infection, positive control, time of addition not specified, read-out: IC50, inhibition of C. parvum growth
  IC50: 400 µM
Cryptosporidium parvum [3]
  reduction of percentage of denuded intestinal villi compared to infected untreated mice: ≥ 7 fold
Cryptosporidium parvum [5]; day 7 post-infection, NSC158011 400 mg/kg, paromomycin 100 mg/kg
  reduction of shedding of C. parvum in mice feces compared to untreated infected mice: about 3000 fold
